The target in assay [1] is T1, Stat3:Stat3 DNA-binding activity (Mus musculus, UniProt P42227).
T1 construct: endogenous in cells; host or cells: NIH3T3/v-Src fibroblasts; EGF-stimulated NIH3T3/hEGFR fibroblasts (nuclear extracts)
In words: EMSA of Stat3:Stat3 DNA-binding activity in nuclear extracts. The format is biochemical. Conditions: for Stat3:Stat3 % of Con, pre-formed Stat3:DNA complex: extract pre-incubated with hSIE probe 30 min. On the procedure:
Details are presented in Supplementary Information, “Methods”. […]
min, prior to incubation with the radiolabeled probe for 30 min at 30 °C and subjecting to EMSA analysis.
In another case, the nuclear extract was pre-incubated with the radiolabeled probe for 30 min at 30 °C prior to incubation with increasing concentration of H182 at room temperature for 30 min and subjecting to EMSA analysis. Bands corresponding to Stats DNA- binding activities were scanned and quantified using ImageJ and plotted as a percentage of control (vehicle) against the concentration of the inhibitor, from which the IC50 values were derived .

Assay [2] relates to MDA-MB-231 cells. In words: Clonogenic survival assay. Conditions: 0.3–2 μM H182, treated once. Type of assay: cell-based, human. On the procedure: (§1) These studies were performed as previously reported. Details are presented in Supplementary Information, “Methods”.
(§2) These studies were performed as previously reported . For the clonogenic survival assay, briefly, cells were seeded as single-cell (500 cells per well) in 6 -well plates, then untreated (DMSO control) or treated once the following day with H182 and allowed to grow until large colonies were visible, which were stained with crystal violet for 4 h and imaged with a FluorChem imaging system (Protein Simple, Santa Clara, CA).
(§3) For the soft-agar assay, briefly, each well contained a bottom layer of 1 ml of 1% agarose in complete DMEM and a top layer of 1 ml of 0.5% agarose in complete DMEM containing 500 cells. After the upper agar layer containing cells solidified, 1 ml culture medium containing H182 (0-2 µM) or DMSO (control) was overlaid, and the cultures were maintained at 37 °C in the incubator, with the medium replacement every 3-4 days with fresh medium that contains the inhibitor or not. Cells were allowed to culture for 3-4 weeks until large colonies were visible under microscope. The colonies were stained with crystal violet and […]
(§4) 1.2.8. Confocal microscopy studies
(§5) 4 cells in 1 ml) in logarithmic
(§6) These studies were performed as previously reported. […]

For assay [3], the target named is Stat3 (Homo sapiens, UniProt P40763). In words: Immunofluorescence confocal microscopy of Stat3 localization. The format is cell-based. Details: endogenous in cells. Conditions: MDA-MB-231 and MDA-MB-468, 1 or 2 μM H182, 12 h. On the procedure:
as §1
During confluence of cultured cells, the cell-to-cell adhesion and cadherin engagement trigger increased Tyr705Stat3 phosphorylation in a variety of cell lines. To investigate the impact of cell-to-cell adhesion and cadherin engagement, parallel studies were conducted in which cells in culture were untreated or treated with 1 or 2 μM H182 for 0.5–48 h, and whole-cell lysates prepared and immunoprobed for pTyr705Stat3. […] After 48-h incubation, the cell confluency of the DMSO-treated samples reached to around 60% for MDA-MB-468 cells and 80% for MDA-MB-231 cells. […] In the untreated cells, Stat3 (red punctate) staining was predominantly localized in the nucleus of the tumor cells, with weak presence in the cytoplasm (Fig. 4F, 0, Stat3, red merged with blue DAPI nuclear staining). […] Total Stat3 protein levels in all of these studies were unchanged, and GAPDH, tubulin or β-actin levels show equal protein loading. The percent changes induced by H182 treatment on Stat3 DNA-binding activity and phosphorylation in the treated cells are shown.
These studies were performed as previously reported . […]

Assay [4] has as its system MDA-MB-231 cells. In words: Soft-agar colony formation. Type of assay: cell-based, human. The conditions noted are these: 0.3–2 μM H182. On the procedure: as §1, §2, §3, §4, §5, §6
Assay [5] concerns MDA-MB-231 cells. In words: Annexin V/propidium iodide staining with flow cytometry. Type of assay: cell-based, human. The conditions noted are these: 3 μM H182 for 3 h. How it is done: For apoptosis analysis, annexin V/propidium iodide (PI) staining was performed. Details are presented in Supplementary Information, “Methods”. […]
software and Prism GraphPad software (San Diego, CA), using the one-site model. Control experiments were carried out by titration H182 into buffer, buffer into Stat3, and buffer into buffer. The three controls were used as a composite for the ITC experiment to subtract the heat of dilution and background noise from […]
1.2.11. Wound healing assay for migration
Studies were performed as previously reported [1 -3]. Briefly, cells were cultured in 6-well plates, and the monolayer of cells was scratched with a p10 pipet tip. Subsequently, fresh medium containing inhibitors or DMSO (control) was added, and then immediately, cells were imaged with a Canon Powershot A640 digital camera under a phase contrast with the Zeiss Axiovert 200 inverted microscope at 10X magnification and noted as the zero time-point. Following culture for 22 h to allow cells to migrate into the denuded area, the culture was then imaged again at the same field that was marked on the plate.
1.2.12. Annexin V binding/apoptosis and flow cytometric analysis
For apoptosis analysis, annexin V/propidium iodide (PI) staining was performed. […] The annexin V- and/or PI-positive cells were analyzed by FACScan flow cytometer (BD Biosciences) and data was analyzed using FlowJo software. […]

The mark [6] stands for this setting: 2 μM H182, incubation time 3 min.
[7] abbreviates: 2 μM H182, incubation time 10 min.
The mark [8] stands for this setting: 2 μM H182, incubation time 30 min.
Setting [9] is: 2 μM H182, incubation time 60 min.

Where two headings read alike, the source gives them in different places.

T1 sequence (P42227 2-770 limits assumed): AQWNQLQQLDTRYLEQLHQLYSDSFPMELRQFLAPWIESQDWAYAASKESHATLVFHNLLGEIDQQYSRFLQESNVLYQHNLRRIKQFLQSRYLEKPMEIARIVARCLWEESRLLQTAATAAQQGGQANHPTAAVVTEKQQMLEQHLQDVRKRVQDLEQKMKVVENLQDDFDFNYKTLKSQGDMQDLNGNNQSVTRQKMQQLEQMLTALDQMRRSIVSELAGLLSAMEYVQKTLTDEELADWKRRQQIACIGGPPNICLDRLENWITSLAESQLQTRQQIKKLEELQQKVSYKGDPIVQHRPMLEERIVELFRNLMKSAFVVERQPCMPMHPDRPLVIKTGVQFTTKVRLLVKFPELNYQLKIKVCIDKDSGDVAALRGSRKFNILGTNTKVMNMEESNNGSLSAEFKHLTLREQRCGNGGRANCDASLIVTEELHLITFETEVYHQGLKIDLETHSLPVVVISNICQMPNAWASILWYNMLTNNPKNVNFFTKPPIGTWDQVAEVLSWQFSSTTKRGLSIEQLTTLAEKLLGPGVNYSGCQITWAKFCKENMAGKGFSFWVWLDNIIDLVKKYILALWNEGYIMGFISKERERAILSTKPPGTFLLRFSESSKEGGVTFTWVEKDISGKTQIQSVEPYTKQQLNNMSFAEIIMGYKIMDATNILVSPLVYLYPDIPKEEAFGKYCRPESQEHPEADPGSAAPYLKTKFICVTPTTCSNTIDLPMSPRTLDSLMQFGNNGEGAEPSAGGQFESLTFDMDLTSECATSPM
Chain of Stat3 (P40763 whole entry): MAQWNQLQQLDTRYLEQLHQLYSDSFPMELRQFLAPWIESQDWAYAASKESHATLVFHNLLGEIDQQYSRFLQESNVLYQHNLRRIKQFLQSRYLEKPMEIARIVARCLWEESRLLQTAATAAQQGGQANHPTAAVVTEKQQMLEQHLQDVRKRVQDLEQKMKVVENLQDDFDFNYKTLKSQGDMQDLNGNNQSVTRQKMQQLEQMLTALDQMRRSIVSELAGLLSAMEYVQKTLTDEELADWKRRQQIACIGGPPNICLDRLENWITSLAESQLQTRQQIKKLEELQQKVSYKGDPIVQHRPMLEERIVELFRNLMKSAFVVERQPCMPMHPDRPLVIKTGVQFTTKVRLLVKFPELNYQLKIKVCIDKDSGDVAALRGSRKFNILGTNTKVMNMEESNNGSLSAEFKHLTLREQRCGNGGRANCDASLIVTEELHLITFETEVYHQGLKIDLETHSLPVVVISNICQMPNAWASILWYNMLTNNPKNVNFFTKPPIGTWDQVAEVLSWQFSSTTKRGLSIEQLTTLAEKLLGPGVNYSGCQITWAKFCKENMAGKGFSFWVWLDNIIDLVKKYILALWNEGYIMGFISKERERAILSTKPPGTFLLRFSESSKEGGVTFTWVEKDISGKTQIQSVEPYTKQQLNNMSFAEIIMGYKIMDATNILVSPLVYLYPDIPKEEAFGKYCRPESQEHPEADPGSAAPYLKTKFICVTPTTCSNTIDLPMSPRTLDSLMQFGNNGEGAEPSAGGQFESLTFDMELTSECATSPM

With `O=C([C@H]1CCN1S(=O)(=O)c1c(F)c(F)c(F)c(F)c1F)N(Cc1ccc(C2CCCCC2)cn1)c1ccc2c(=O)[nH]ncc2c1` [Compound H182], the “Stat3:Stat3 Intensity (% of Con)” value in assay [1] (2 μM H182, incubation time 0 min) is given as 100 % of Con; in assay [1] (setting [6]), 84 % of Con; in assay [1] (setting [7]), 65 % of Con; in assay [1] (setting [8]), 14 % of Con; in assay [1] (setting [9]), 0.1 % of Con. In addition, the inhibition – broadly, the drop in the measured response relative to a control, in per cent – at 2 µM in assay [1] (setting [6]) stood at 16%; in assay [1] (setting [7]) it was 35%; in assay [1] (setting [8]), 86%; in assay [1] (setting [9]), 99.9%. For the same compound, the IC50 – broadly, the concentration that gives 50% inhibition – in assay [1] (EMSA, NIH3T3/v-Src nuclear extracts, 30-min incubation at room temperature before hSIE probe, read-out: Stat3:Stat3 IC50) is 660 ± 100 nM; in assay [1] (EMSA, incubation time 10 min before hSIE probe, read-out: Stat3:Stat3 IC50), 1470 nM; in assay [1] (EMSA, incubation time 60 min before hSIE probe, read-out: Stat3:Stat3 IC50), 380 nM; in assay [1] (Fig. 1C, extracts of EGF-stimulated NIH3T3/hEGFR, hSIE probe, 30 min, read-out: IC50 Stat3:Stat3) it was 700 nM; in assay [1] (range over the named compounds and incubation times, read-out: IC50 Stat3 DNA-binding activity in vitro (summary range)) it was 380 to 980 nM. Also, the “Stat3:Stat3 % of Con, pre-formed Stat3:DNA complex” value in assay [1] (then 1 μM H182 30 min) was 101 % of Con; in assay [1] (then 3 μM H182 30 min) it was 101 % of Con; in assay [1] (then 10 μM H182 30 min), 100 % of Con; in assay [1] (then 30 μM H182 30 min), 98 % of Con; in assay [1] (then 100 μM H182 30 min), 86 % of Con. In addition, the “Inhibition of the pre-formed Stat3:DNA complex” value in assay [1] (up to 100 μM H182) is “unable to inhibit the pre-formed Stat3:DNA complex”. Moreover, the “Effect on anchorage-dependent colony formation” value in assay [2] is “potently and dose-dependently inhibited”. Besides, the “Effect on intracellular localization of Stat3” value in assay [3] is “decreased nuclear Stat3 staining and Stat3 aggregation at the perinuclear region”. The “Effect on anchorage-independent growth in soft-agar” value in assay [4] was “potently and dose-dependently inhibited”. In addition, the “Annexin V/PI double-positive staining” value in assay [5] is reported as “roughly 12%”.

Source of the values: PMC9867837 (Cancer letters, 2022).
